Experimental data as given in patent US20100267712A1, “ISOINDOLINE COMPOUNDS FOR THE TREATMENT OF SPINAL MUSCULAR ATROPHY AND OTHER USES” (The United States of America, as represented by the …, priority 2007, published 2010).

How the values were obtained:
[1] = system: translational stop codon read-through, human SMN2 open reading frame-luciferase; experiment: Translational read-through luciferase reporter assay (luciferase preceded by the open reading frame of the human SMN2 gene); format: cell-based
Description: This assay was similar in design to that described in WO 01/44516 A2. This was a cell-based luciferase reporter assay designed to detect translational read-through via insertion of a translational stop codon within the coding sequence that includes luciferase. In the presence of compounds that promote read-through of translational stop codons, active luciferase was produced and detected via chemiluminescence. Compounds of the invention typically were active in three versions of this assay: luciferase reporter containing a UGA stop codon, luciferase reporter containing a UAG stop codon, which is the first stop codon downstream of the improper splice junction between exons 6 and 8 in the human SMN2 transcript, and luciferase preceded by the open reading frame of the human SMN2 gene.

[2] = system: SMN-containing gems in type 1 SMA patient fibroblasts (3813 cells); experiment: SMN-containing gem count in SMA patient fibroblasts; format: cell-based, human; settings: 48 hours, 3813 fibroblasts
Description: SMN protein can be found in punctate nuclear particles called “gems” (Liu and Dreyfuss, EMBO J, 15 (14): 3555-3565 (1996)). In fibroblast cells derived from SMA patients, the number of gems corresponds to disease severity as follows: severe type 1 patients have approximately 5 gems per 100 nuclei; mild type 3 patients have 20-50 gems per 100 nuclei; normal individuals have approximately 100-150 gems per 100 nuclei (Coovert et al., Hum Mol Genet, 6 (8): 1205-1214 (1997), Young et al., Exp Cell Res, 265 (2): 252-261 (2001)).
Gems are detectable by immunohistochemistry and gem counts in patient fibroblasts have been used to test the ability of compounds to increase SMN protein levels (Mattis et al., Hum Genet, 120: 589-601 (2006)). Following these methods, fibroblast cells from a type 1 SMA patient (3813 cells, Coriell Cell Repositories) were treated for 48 hours with a compound of the invention. The cells were then fixed and incubated with a monoclonal antibody against SMN (4B7, Wolstencroft et al., Hum Mol Genet, 14: 1199-1210 (2005)). A FITC-conjugated anti-mouse secondary antibody was used to visualize the labeled gems. A positive control in these experiments was provided by fibroblasts from the same patient treated with 1000 μM valproic acid.

[3] = system: SMN2-linked luciferase-reporter gene construct; experiment: SMN Splice Reporter Assay (SMN2-linked luciferase reporter); format: cell-based; settings: for EC50: cervical carcinoma cell lines, SMN2 splice luciferase reporter; for Fold Increase: fold-increase of luciferase over baseline reading of transformed cells without any test compound
Outline: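 Cervical carcinoma cells carrying an SMN2-luciferase splicing reporter, in-frame only with exon 7 inclusion, were treated with compound. Luciferase activity reported as fold increase over untreated transformed cells, with EC50 derived.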

[4] = system: SMN protein; experiment: Western blot of total cellular SMN protein in SMA type I fibroblasts; format: cell-based, human; settings: 48 hours, 3813 cells
Procedure: Western blots were performed using standard methods. SMA type I fibroblasts (3813 cells; Coriell Cell Repositories) were treated with compounds for 48 hours. Monoclonal SMN anti-SMN antibody 4B7 (Wolstencroft et al., Hum Mil Genet, 14:1199-1210 (2005)) was used to identify SMN protein. Tubulin was used as an internal normalization standard. DMSO treatment serves as the negative control.

[5] = system: SMA model mouse fetuses; settings: administered in utero; cited from earlier work
[6] = system: SMN protein; settings: cited from earlier work

Row | Compound | EC50 [1] [nM] | EC50 [3] [nM] | maximal fold induction [1] | Average number of gems per 100 nuclei ([2]; 1 μM compound) | Fold Increase [3] | other results
1 | CC(=O)Nc1ccc2c(c1)C(=O)N(c1ccc3ccn(C)c3c1)C2 [Example 121505] |  | 203 |  | 47 | 1.817 | 
2 | COc1ccc2c(c1)C(=O)N(c1ccc3cn[nH]c3c1)C2 [Example 120602] | 1110 | 154 | 2.12 |  | 1.412 | Average number of gems per 100 nuclei ([2]; 0.1 μM compound): 68; SMN:Tubulin ratio as % of Vehicle Control ([4]; 1 μM): 123.67%
3 | CC(C(=O)O)c1ccc(N2Cc3ccccc3C2=O)cc1 (stereo not shown) [Indoprofen, indoprofen] |  |  |  |  |  | survival of SMA model mouse fetuses [5]: increase survival; production of SMN from the endogenous SMN2 gene ([6]; SMA patient fibroblasts): increase in production of SMN; level of expression of SMN protein ([6]; cultured cells, Lunn et al. 2004): increases the level of expression of SMN protein; luciferase activity ([3]; result in words): increases luciferase activity
4 | COc1ccc2c(c1)C(=O)N(c1ccc3cc(C)n(C)c3c1)C2 [Example 124597] |  | 347 |  | 42 | 1.358 | 
5 | CC(C)Oc1ccc2c(c1)C(=O)N(c1ccc3ccn(C)c3c1)C2 [Example 124326] | 129 | 170 | 0.946 | 98 | 1.666 | SMN:Tubulin ratio as % of Vehicle Control ([4]; 3 μM): 147.687%
6 | COc1ccc2c(c1)C(=O)N(c1ccc3c(c1)cc(C)n3C(C)C)C2 [Example 123714] | 1900 | 2630 | 1.18 | 84 | 1.863 | 
7 | COc1ccc2c(c1)C(=O)N(c1ccc3ncsc3c1)C2 [Example 120596] | 1720 | 126 | 2.23 |  | 1.591 | Average number of gems per 100 nuclei ([2]; 0.1 μM compound): 148; SMN:Tubulin ratio as % of Vehicle Control ([4]; 1 μM): 124.41%
8 | Cn1ccc2cc(N3Cc4ccc(N5CCCC5)cc4C3=O)ccc21 [Example 122317] |  | 187 |  | 45 | 1.47 | 
9 | COc1ccc2c(c1)C(=O)N(c1ccc3c(c1)cc(C)n3C)C2 [Example 120595] |  | 114 |  | 32 | 1.531 | 
10 | O=C1c2cc(OC(F)F)ccc2CN1c1ccc2ncccc2c1 [Example 120790] |  | 142 |  | 27 | 1.926 | 

Second part, led by results:

Row | EC50 [1] [nM] | EC50 [3] [nM] | Compound | maximal fold induction [1] | Average number of gems per 100 nuclei ([2]; 1 μM compound) | Fold Increase [3] | other results
11 | 4210 | 43 | CN(C)c1ccc2c(c1)C(=O)N(c1ccc3ccn(C)c3c1)C2 [Example 124771] | 1.8 | 50 | 1.689 | 
12 |  | 9 | CN(C)c1ccc2c(c1)C(=O)N(c1ccc3ncccc3c1)C2 [Example 124032] | 1.02 | 65 | 1.659 | 
13 | 1350 | 112 | Cn1ccc2cc(N3Cc4ccc(OC(F)F)cc4C3=O)ccc21 [Example 119537] | 2.12 |  | 1.604 | Average number of gems per 100 nuclei ([2]; 0.1 μM compound): 31
14 | 4280 | 59 | COc1ccc2c(c1)C(=O)N(c1ccc3occc3c1)C2 [Example 119047] | 2.04 |  | 1.456 | Average number of gems per 100 nuclei ([2]; 0.1 μM compound): 32; SMN:Tubulin ratio as % of Vehicle Control ([4]; 0.1 μM): 125.19%
15 |  | 30 | COc1ccc2c(c1)C(=O)N(c1ccc3ncccc3c1)C2 [Example 120286] |  |  | 1.713 | Average number of gems per 100 nuclei ([2]; 0.1 μM compound): 132
16 |  | 20 | COc1ccc2c(c1)C(=O)N(c1ccc3c(c1)CCCN3C)C2 [Example 120121] |  |  | 1.702 | Average number of gems per 100 nuclei ([2]; 0.1 μM compound): 16
17 |  | 24 | CN(C)c1ccc2c(c1)C(=O)N(c1ccc3c(ccn3C)c1)C2 [Example 124429] |  | 44 | 1.594 | 
18 |  | 106 | COc1ccc2c(c1)C(=O)N(c1ccc3cc[nH]c3c1)C2 [Example 119869] |  | 49 | 1.716 | 
19 | 350 | 69 | CCOc1ccc2c(c1)C(=O)N(c1ccc3c(ccn3C)c1)C2 [Example 121789] | 1.79 | 10 | 1.461 | 
20 |  | 45 | COc1ccc2c(c1)C(=O)N(c1ccc3c(ccn3C)c1)C2 [Example 118417] |  |  | 1.485 | Average number of gems per 100 nuclei ([2]; 3 μM compound): 53
21 |  | 101 | CCC(C)c1ccc2c(c1)C(=O)N(c1ccc3c(ccn3C)c1)C2 (stereo not shown) [Example 122182] |  | 18 | 1.539 | 
22 | 91 | 99 | Cc1cc2cc(N3Cc4ccc(N(C)C)cc4C3=O)ccc2n1C [Example 123707] | 1.44 |  | 1.635 | Average number of gems per 100 nuclei ([2]; 0.1 μM compound): 53
23 |  | 102 | COc1ccc2c(c1)C(=O)N(c1ccc3ccsc3c1)C2 [Example 118739] |  | 76 | 1.617 | 
24 | 1840 | 68 | CCCc1ccc2c(c1)C(=O)N(c1ccc3c(ccn3C)c1)C2 [Example 119522] | 1.73 | 6 | 1.557 | 
25 | 2640 | 88 | Cc1cc2cc(N3Cc4ccc(Cl)cc4C3=O)ccc2n1C [Example 123011] | 1.89 | 37 | 1.481 | 
